Read-outs that look alike come from different tables or passages of the source. Each block holds one compound with its values, some of them ahead of it.
Columns and labels:
CYP505A30 [1] = biological target: T1, CYP505A30 (Thermothelomyces thermophilus, UniProt G2QDZ3); assay: UV-visible spectral binding titration of fatty acid substrates (type I heme Soret shift) to ca. 4-6 uM enzyme in 50 mM potassium phosphate pH 7.0 at 25 °C, hyperbolic or Morrison fit.; set-up: gene MYCTH_101224; intact CYP505A30, amino acids 1-1080, N-terminal hexahistidine tag (pET15b), expressed in E. coli
heme domain = biological target: T2, heme domain (Thermothelomyces thermophilus, UniProt G2QDZ3); assay: as above
T2 construct: gene MYCTH_101224; heme domain, amino acids 1-464 (stop codon at Gly465, named D464X), N-terminal hexahistidine tag (pET15b), expressed in E. coli
T2 sequence (G2QDZ3 1-464): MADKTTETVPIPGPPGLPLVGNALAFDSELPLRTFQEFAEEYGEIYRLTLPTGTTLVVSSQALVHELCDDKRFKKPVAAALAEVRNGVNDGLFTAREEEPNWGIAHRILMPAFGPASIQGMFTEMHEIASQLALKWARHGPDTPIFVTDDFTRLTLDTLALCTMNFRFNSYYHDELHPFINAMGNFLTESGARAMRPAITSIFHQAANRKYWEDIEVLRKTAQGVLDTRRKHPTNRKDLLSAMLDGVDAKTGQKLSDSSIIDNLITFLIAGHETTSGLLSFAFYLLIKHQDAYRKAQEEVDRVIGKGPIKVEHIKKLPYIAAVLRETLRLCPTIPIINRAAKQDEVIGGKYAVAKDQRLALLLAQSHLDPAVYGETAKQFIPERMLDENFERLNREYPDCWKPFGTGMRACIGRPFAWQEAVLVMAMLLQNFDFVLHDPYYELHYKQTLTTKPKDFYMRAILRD

CYP505A30 heme domain [2] = biological target: T3, CYP505A30 heme domain (Thermothelomyces thermophilus, UniProt G2QDZ3); assay: UV–visible spectral binding titration with CYP505A30 heme domain
CYP505A1 [3] = test system: CYP505A1; set-up: method as in PMID 11985584; details: cited from earlier work
CYP505A30 heme domain [4] = biological target: T3, CYP505A30 heme domain
CYP505A30 [5] = biological target: T1, CYP505A30
P450 BM3 [6] = test system: P450 BM3; set-up: method as in PMID 1727637; details: cited from earlier work
CYP505A30 [7] = biological target: T1, CYP505A30; assay: UV–visible spectral binding titration with intact CYP505A30; details: for Kd: substrate binding to intact CYP505A30, heme absorbance change, 25 °C
CYP505A30 [8] = biological target: T1, CYP505A30; remark: listed apart in the source
CYP505A1 [9] = assay: CYP505A1 dodecanoic acid oxidation product distribution (literature); type: biochemical, Fusarium oxysporum; details: CYP505A1, from literature values
[10] = biological target: FMN (flavodoxin-like) domain of human reductase; set-up: method as in PMID 6778861, PMID 11695890, PMID 12600198; details: cited from earlier work
[11] = biological target: Desulfovibrio vulgaris flavodoxin; details: D. vulgaris flavodoxin; cited from earlier work
[12] = test system: FMN (flavodoxin-like) domain of P450 BM3 reductase; set-up: method as in PMID 6778861, PMID 11695890, PMID 12600198; details: cited from earlier work
CYP505A30 heme domain [13] = biological target: T3, CYP505A30 heme domain; details: arachidonic acid-bound heme domain, vs NHE
P450 BM3 [14] = details: cited from earlier work
rat CPR = details: cited from earlier work

T1 sequence (G2QDZ3 entry or part of it): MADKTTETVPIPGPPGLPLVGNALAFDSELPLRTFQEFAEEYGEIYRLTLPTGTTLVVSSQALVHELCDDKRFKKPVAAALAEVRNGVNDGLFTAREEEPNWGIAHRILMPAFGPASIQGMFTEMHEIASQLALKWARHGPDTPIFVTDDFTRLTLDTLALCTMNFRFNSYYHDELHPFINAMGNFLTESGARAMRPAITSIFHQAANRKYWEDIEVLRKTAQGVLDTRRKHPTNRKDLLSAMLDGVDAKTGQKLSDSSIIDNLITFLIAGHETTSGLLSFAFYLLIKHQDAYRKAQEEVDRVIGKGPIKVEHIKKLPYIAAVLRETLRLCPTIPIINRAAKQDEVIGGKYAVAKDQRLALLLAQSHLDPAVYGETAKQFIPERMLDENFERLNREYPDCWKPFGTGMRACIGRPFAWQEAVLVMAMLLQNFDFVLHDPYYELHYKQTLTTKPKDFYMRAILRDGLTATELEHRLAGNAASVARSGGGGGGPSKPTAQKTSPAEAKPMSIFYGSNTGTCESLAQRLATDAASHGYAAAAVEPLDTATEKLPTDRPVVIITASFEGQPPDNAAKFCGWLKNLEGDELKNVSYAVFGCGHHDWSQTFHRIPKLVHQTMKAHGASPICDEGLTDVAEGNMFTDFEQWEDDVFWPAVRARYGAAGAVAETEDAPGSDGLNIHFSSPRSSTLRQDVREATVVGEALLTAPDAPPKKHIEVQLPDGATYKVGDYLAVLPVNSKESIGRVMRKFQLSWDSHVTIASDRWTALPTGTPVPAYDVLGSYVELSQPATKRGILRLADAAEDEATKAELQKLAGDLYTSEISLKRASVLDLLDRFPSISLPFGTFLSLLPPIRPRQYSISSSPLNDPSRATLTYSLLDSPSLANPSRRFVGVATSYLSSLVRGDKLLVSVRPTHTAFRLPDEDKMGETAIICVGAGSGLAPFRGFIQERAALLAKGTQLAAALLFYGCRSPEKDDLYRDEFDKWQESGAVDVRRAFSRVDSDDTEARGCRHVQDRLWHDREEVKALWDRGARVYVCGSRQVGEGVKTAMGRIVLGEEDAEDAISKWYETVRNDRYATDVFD

Compound: CCCCCCCCCCCCCCCC(=O)NCC(=O)O [N-palmitoylglycine (NPG), N-palmitoylglycine]
- Kd (CYP505A30 [1]): 5.4 ± 0.1 µM
- Kd (heme domain): 2.7 ± 0.8 µM

Compound: CCCCCCCCCCCC(=O)O [dodecanoic acid]
- Kd (CYP505A30 heme domain [2]): 9 ± 0.9 µM
- ω-1 hydroxylated product proportion (CYP505A1 [3]): ~55%
- ω-2 hydroxylated product proportion (CYP505A1 [3]): ~37%
- ω-3 hydroxylated product proportion (CYP505A1 [3]): ~8%
- HS (%) (CYP505A30 heme domain [4]): 60%
- HS (%) (CYP505A30 [5]): 10%
- ω-1 hydroxylated product proportion (P450 BM3 [6]): 48%
- ω-2 hydroxylated product proportion (P450 BM3 [6]): 26%
- ω-3 hydroxylated product proportion (P450 BM3 [6]): 26%
- Kd (CYP505A30 [7]): 6.1 ± 0.4 µM
- ratio ω-1/ω-2 hydroxylated products (CYP505A30 [8]; CYP505A30): 8.8
- ω-1 hydroxylated product proportion (CYP505A30 [8]; CYP505A30, GC–MS): 88%
- ω-2 hydroxylated product proportion (CYP505A30 [8]; CYP505A30, GC–MS): ~10%
- ω-3 hydroxylated product proportion (CYP505A30 [8]; CYP505A30, GC–MS): 2%
- ω-1 hydroxylated product proportion (CYP505A30 [8]; CYP505A30, GC–MS, listed as lauric acid): approximately 88%
- ratio ω-1/ω-2 hydroxylated products (CYP505A1 [9]): 1.5

Compound: Cc1cc2nc3c(=O)[nH]c(=O)nc-3n(C[C@H](O)[C@H](O)[C@H](O)COP(=O)(O)O)c2cc1C [FMN, flavin mononucleotide]
- Kd [10]: 0.042 ± 0.007 µM
- Kd [11]: 0.0024 µM
- Kd [12]: 0.086 ± 0.014 µM

- Kd (CYP505A30 heme domain [2]): 0.12 ± 0.01 µM
- HS (%) (CYP505A30 heme domain [2]; extent of HS heme iron accumulated, heme domain, estimated to nearest 5%): 65%
- heme Fe^III/Fe^II midpoint potential E^0′ (CYP505A30 heme domain [13]): −69 ± 3 mV
- Kd (CYP505A30 [7]): 1.7 ± 0.1 µM
- HS (%) (CYP505A30 [7]; extent of HS heme iron accumulated, intact CYP505A30, estimated to nearest 5%): 60%
Compound: CCCCC/C=C\C/C=C\C/C=C\C/C=C\CCCC(=O)O [arachidonic acid]
- kcat (P450 BM3 [14]; P450 BM3, similar conditions): 285 ± 32 s^–1
- rate constant of oxidation (P450 BM3 [14]; P450 BM3): > 17 000 min^–1

Compound: Cc1cc2nc3c(=O)[nH]c(=O)nc-3n(C[C@H](O)[C@H](O)[C@H](O)COP(=O)(O)OP(=O)(O)OC[C@H]3O[C@@H](n4cnc5c(N)ncnc54)[C@H](O)[C@@H]3O)c2cc1C [FAD, flavin adenine dinucleotide]
- binding (rat CPR): subnanomolar
